In patent US6949574B2 (Bristol-Myers Squibb Company, priority 2002, dated 2005):

The compounds below were run against T1, human FAAH (Homo sapiens, UniProt O00519) (assay: FAAH activity in membrane homogenates of H4-FAAH cells, [3H]-anandamide hydrolysis). Settings: not given.
T1 construct: expressed in transfected cells; host or cells: H4 cells (H4-FAAH, Geneticin-selected); crude membrane homogenates
T1 sequence (O00519 1-579): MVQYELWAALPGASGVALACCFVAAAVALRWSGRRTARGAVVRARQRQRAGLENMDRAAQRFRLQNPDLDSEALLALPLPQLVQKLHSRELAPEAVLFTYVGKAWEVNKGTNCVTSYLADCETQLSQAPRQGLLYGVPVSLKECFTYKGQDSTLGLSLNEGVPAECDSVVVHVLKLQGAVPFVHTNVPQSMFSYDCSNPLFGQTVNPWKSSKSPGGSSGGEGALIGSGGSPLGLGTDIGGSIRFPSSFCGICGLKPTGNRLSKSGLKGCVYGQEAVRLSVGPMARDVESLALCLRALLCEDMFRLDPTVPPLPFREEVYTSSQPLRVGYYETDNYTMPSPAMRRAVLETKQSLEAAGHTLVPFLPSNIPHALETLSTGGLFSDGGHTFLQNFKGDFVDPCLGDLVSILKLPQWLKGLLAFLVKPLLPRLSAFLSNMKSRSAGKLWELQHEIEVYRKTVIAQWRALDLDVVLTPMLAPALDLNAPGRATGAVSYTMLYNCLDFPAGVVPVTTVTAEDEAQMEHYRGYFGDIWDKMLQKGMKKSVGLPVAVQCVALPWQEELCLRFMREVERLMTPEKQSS
Type: biochemical
Protocol: Homogenates of crude membranes were prepared from H4 cells that express transfected human FAAH (H4-FAAH cells). Briefly, cells were grown in DMEM supplemented with 10% FBS and Geneticin at a final concentration of 500 μg/ml (Gibco BRL, Rockville, Md.). Confluent cultures of H4-FAAH cells were rinsed twice with phosphate-buffered saline [138 mM NaCl, 4.1 mM KCl, 5.1 mM Na2PO4, 1.5 mM KH2PO4 (pH 7.5), 37° C.] and incubated for 5 to 10 minutes at 4° C. in lysis buffer [1 mM sodium bicarbonate]. Cells were transferred from plates to polypropylene tubes (16×100 mm), homogenized and centrifuged at 32,000×g for 30 minutes. Pellets were resuspended by homogenization in lysis buffer and centrifuged at 32,000×g for 30 minutes. Pellets were resuspended in lysis buffer (15-20 μg protein/ml) then stored at −80° C. until needed. On the day of an experiment, membranes were diluted to 2.67 μg protein/ml in 125 mM Tris-Cl, pH 9.0.
Activity of FAAH was measured using a modification of the method described by Omeir et al., 1995 (Life Sci 56:1999, 1995). Membrane homogenates (240 ng protein) were incubated at room temperature for one hour with 1.67 nM anandamide [ethanolamine 1-^3H] (available from American Radiolabeled Chemical Inc., St Louis, Mo.) and 10 μM anandamide (available from Sigma/RBI, St. Louis, Mo.) in the absence and presence of inhibitors. The reaction was stopped by the addition of 1 volume of a solution of 1:1 methanol and dichloroethane. The mixture was shaken and then centrifuged at 1000×g for 15 minutes to separate the aqueous and organic phases. An aliquot of the aqueous phase, containing [^3H]-ethanolamine was withdrawn and counted by scintillation spectroscopy. Data were expressed as the percentage of [^3H]-ethanolamine formed versus vehicle, after subtraction of the background radioactivity determined in the presence of 10 μM arachidonyl trifluoromethyl ketone (ATFMK), an inhibitor of FAAH. IC50 values were determined using a four-parameter logistic equation for dose-response curves.
In the case of `CCCCOc1cccc(NC(=O)ON=C(C)C)c1` [Example 66, 2-Propanone, O-[[(3-butoxyphenyl)amino]carbonyl]oxime], the IC50 is reported as > 0.5 µM.

Same assay, conditions: H4-FAAH cell membranes, 10 μM anandamide, room temperature, one hour; read-out: IC50
In the case of `CCCCCCCCCCCCOc1ccc(NC(=O)O/N=C/c2ccc(F)cc2)cc1` [Example 42, 4-Fluorobenzaldehyde, O-[[(4-dodecyloxyphenyl)amino]carbonyl]oxime], the IC50 is reported as < 0.01 µM. `CCCCCCCCCCCCOc1ccc(NC(=O)O/N=C/c2cccnc2)cc1` [Example 43, 3-Pyridinecarboxaldehyde, O-[[(4-dodecyloxyphenyl)amino]carbonyl]oxime] was tested, and the IC50 was < 0.01 µM. `CCCCOc1ccc(NC(=O)O/N=C/c2cccnc2)cc1` [Example 44, 3-Pyridinecarboxaldehyde, O-[[(4-butoxyphenyl)amino]carbonyl]oxime] was tested, and the IC50 was 0.01 to 0.1 µM. With `CCCCCCCCOc1ccc(NC(=O)O/N=C/c2ccccc2)cc1` [Example 45, Benzaldehyde, O-[[(4-octyloxyphenyl)amino]carbonyl]oxime] the IC50 was < 0.01 µM. With `CCCCCCCCOc1ccc(NC(=O)O/N=C/c2ccc(F)cc2)cc1` [Example 46, 4-Fluorobenzaldehyde, O-[[(4-octyloxyphenyl)amino]carbonyl]oxime] the IC50 was < 0.01 µM. For `CCCCCCCCCOc1ccc(NC(=O)O/N=C/c2ccccc2)cc1` [Example 47, Benzaldehyde, O-[[(4-nonyloxyphenyl)amino]carbonyl]oxime], the IC50 was < 0.01 µM. In the case of `CCCCCCCCCOc1ccc(NC(=O)O/N=C/c2ccc(F)cc2)cc1` [Example 48, 4-Fluorobenzaldehyde, O-[[(4-nonyloxyphenyl)amino]carbonyl]oxime], the IC50 is reported as < 0.01 µM. With `CCCCCCCCCOc1ccc(NC(=O)O/N=C/c2ccc(F)c(F)c2)cc1` [Example 49, 3,4-Difluorobenzaldehyde, O-[[(4-nonyloxyphenyl)amino]carbonyl]oxime] the IC50 was < 0.01 µM. In the case of `CCCCCCCCCOc1ccc(NC(=O)O/N=C/c2c(F)cccc2F)cc1` [Example 50, 2,6-Difluorobenzaldehyde, O-[[(4-nonyloxyphenyl)amino]carbonyl]oxime], the IC50 is reported as < 0.01 µM. In the case of `CCCCCCCCCOc1ccc(NC(=O)O/N=C/c2ccc(F)cc2F)cc1` [Example 51, 2,4-Difluorobenzaldehyde, O-[[(4-nonyloxyphenyl)amino]carbonyl]oxime], the IC50 is reported as < 0.01 µM. With `CCCCCCCCCOc1ccc(NC(=O)O/N=C/c2cccc(F)c2)cc1` [Example 52, 3-Fluorobenzaldehyde, O-[[(4-nonyloxyphenyl)amino]carbonyl]oxime] the IC50 was < 0.01 µM. In the case of `CCCCCCCCCOc1ccc(NC(=O)O/N=C/c2ccc(C(F)(F)F)cc2)cc1` [Example 53, 4-(Trifluoromethyl)benzaldehyde, O-[[(4-nonyloxyphenyl)amino]carbonyl]oxime], the IC50 is reported as < 0.01 µM. In the case of `CCCCCCCCCOc1ccc(NC(=O)O/N=C/c2cccc(C(F)(F)F)c2F)cc1` [Example 54, 2-Fluoro-3-(trifluoromethyl)benzaldehyde, O-[[(4-nonyloxyphenyl)amino]carbonyl]oxime], the IC50 is reported as < 0.01 µM. For `CCCCCCCCCOc1ccc(NC(=O)O/N=C/c2cccc(F)c2F)cc1` [Example 55, 2,3-Difluorobenzaldehyde, O-[[(4-nonyloxyphenyl)amino]carbonyl]oxime], the IC50 was < 0.01 µM. With `CCCCCCCCCOc1ccc(NC(=O)O/N=C/c2cc(F)c(F)cc2F)cc1` [Example 56, 2,4,5-Trifluorobenzaldehyde, O-[[(4-nonyloxyphenyl)amino]carbonyl]oxime] the IC50 was < 0.01 µM. `CCCCCCCCCOc1ccc(NC(=O)O/N=C/c2cc(C(F)(F)F)ccc2F)cc1` [Example 57, 2-Fluoro-5-(trifluoromethyl)benzaldehyde, O-[[(4-nonyloxyphenyl)amino]carbonyl]oxime] was tested, and the IC50 was < 0.01 µM. For `O=C(Nc1ccc(OCCCN2CCOCC2)cc1)O/N=C/c1ccc(F)cc1` [Example 58, 4-Fluorobenzaldehyde, O-[[4-[3-(4-morpholinyl)propoxyphenyl]amino]carbonyl]oxime], the IC50 was > 0.5 µM. In the case of `CCCCOc1ccc(NC(=O)O/N=C/c2ccc([N+](=O)[O-])cc2)cc1` [Example 59, 4-Nitrobenzaldehyde, O-[[(4-butoxyphenyl)amino]carbonyl]oxime], the IC50 is reported as < 0.01 µM. For `CCCCOc1ccc(NC(=O)ON=C(C)C)cc1` [Example 60, 2-Propanone, O-[[(4-butoxyphenyl)amino]carbonyl]oxime], the IC50 was 0.01 to 0.1 µM. With `CCCCOc1ccc(CNC(=O)ON=C(C)C)cc1` [Example 61, 2-Propanone, O-[[(4-butoxyphenylmethyl)amino]carbonyl]oxime] the IC50 was > 0.5 µM. `CCCCOc1ccc(CNC(=O)O/N=C/c2ccccc2)cc1` [Example 62, Benzaldehyde, O-[[(4-butoxyphenylmethyl)amino]carbonyl]oxime] showed an IC50 of 0.01 to 0.1 µM. `CCCCOc1ccc(CNC(=O)O/N=C/c2ccc(F)cc2)cc1` [Example 63, 4-Fluorobenzaldehyde, O-[[(4-butoxyphenylmethyl)amino]carbonyl]oxime] was tested, and the IC50 was 0.01 to 0.1 µM. `CCCCOc1ccc(CNC(=O)O/N=C/c2cccnc2)cc1` [Example 64, 3-Pyridinecarboxaldehyde, O-[[(4-butoxyphenylmethyl)amino]carbonyl]oxime] was tested, and the IC50 was 0.01 to 0.1 µM. Work on `CCCCOc1cccc(NC(=O)O/N=C/c2cccnc2)c1` [Example 65, 3-Pyridinecarboxaldehyde, O-[[(3-butoxyphenyl)amino]carbonyl]oxime] yielded an IC50 of 0.01 to 0.1 µM. Compound `CCCCOc1cccc(NC(=O)O/N=C/c2ccccc2)c1` [Example 67, Benzaldehyde, O-[[(3-butoxyphenyl)amino]carbonyl]oxime] has an IC50 of 0.01 to 0.1 µM. For `CCCCOc1cccc(NC(=O)O/N=C/c2ccc(F)cc2)c1` [Example 68, 4-Fluorobenzaldehyde, O-[[(3-butoxyphenyl)amino]carbonyl]oxime], the IC50 was 0.01 to 0.1 µM. `O=C(Nc1ccc(-c2ccccc2)cc1)O/N=C/c1cccnc1` [Example 69, 3-Pyridinecarboxaldehyde, O-[[([1,1′-biphenyl]-4-yl)amino]carbonyl]oxime] showed an IC50 of 0.01 to 0.1 µM. `CCc1ccc(-c2ccc(NC(=O)O/N=C/c3cccnc3)cc2)cc1` [Example 70, 3-Pyridinecarboxaldehyde, O-[[(4′-ethyl-[1,1′-biphenyl]-4-yl)amino]carbonyl]oxime] was tested, and the IC50 was 0.01 to 0.1 µM. In the case of `O=C(Nc1ccc(Oc2ccccc2)cc1)O/N=C/c1cccnc1` [Example 71, 3-Pyridinecarboxaldehyde, O-[[(4-phenoxyphenyl)amino]carbonyl]oxime], the IC50 is reported as < 0.01 µM. `O=C(Nc1ccc(-c2ccccc2)cc1)O/N=C/c1ccccc1` [Example 72, Benzaldehyde, O-[[([1,1′-biphenyl]-4-yl)amino]carbonyl]oxime] was tested, and the IC50 was 0.01 to 0.1 µM. `CCc1ccc(-c2ccc(NC(=O)O/N=C/c3ccccc3)cc2)cc1` [Example 74, Benzaldehyde, O-[[(4′-ethyl-[1,1′-biphenyl]-4-yl)amino]carbonyl]oxime] was tested, and the IC50 was < 0.01 µM. With `CCc1ccc(-c2ccc(NC(=O)O/N=C/c3ccc(F)cc3)cc2)cc1` [Example 75, 4-Fluorobenzaldehyde, O-[[(4′-ethyl-[1,1′-biphenyl]-4-yl)amino]carbonyl]oxime] the IC50 was < 0.01 µM. In the case of `O=C(Nc1ccc(Oc2ccccc2)cc1)O/N=C/c1ccccc1` [Example 76, Benzaldehyde, O-[[(4-phenoxyphenyl)amino]carbonyl]oxime], the IC50 is reported as < 0.01 µM. For `O=C(Nc1ccc(Oc2ccccc2)cc1)O/N=C/c1ccc(F)cc1` [Example 77, 4-Fluorobenzaldehyde, O-[[(4-phenoxyphenyl)amino]carbonyl]oxime], the IC50 was < 0.01 µM. For `O=C(Nc1ccc(OCc2ccccc2)cc1)O/N=C/c1cccnc1` [Example 78, 3-Pyridinecarboxaldehyde, O-[[[4-(phenylmethoxy)phenyl]amino]carbonyl]oxime], the IC50 was < 0.01 µM. `O=C(Nc1ccc(OCCc2ccccc2)cc1)O/N=C/c1cccnc1` [Example 79, 3-Pyridinecarboxaldehyde, O-[[[4-(2-phenylethoxy)phenyl]amino]carbonyl]oxime] was tested, and the IC50 was < 0.01 µM.
